Data as given in patent US20260028356A1, “1,3,4,7-TETRAHYDRO-2H-PYRROLO[3',2':5,6]PYRIDO[2,3-B][1,4]OXAZEPINE BCL-2 INHIBITORS” (AbbVie Inc., priority 2022, published 2026).
Where “and” joins values, the source holds several entries; their conditions need not be identical. Identical values can stand only once.

Columns and labels:
Molt-4 cells = experiment: Cell Viability Assay (CellTiter-Glo) in Molt-4 cells (counter screen); format: cell-based; conditions: 24 hours, 10% Human Serum
Procedure: (§1) The acute lymphoblastic leukemia (ALL) human cell line RS4;11 (ATCC, Manassas VA) was used as the primary human cell line to assess the cellular activity of compound of the present Examples in vitro and their efficacy in vivo. […] The acute lymphoblastic leukemia cell line Molt-4, which is derived from immature T-lymphoid cells (T-ALL), was used as a counter screen assay.
(§2) 3000 Cells (0.1×10^6/mL) were seeded in each well of 384-well plate and were treated for 24 hours in a humidified chamber with 5% CO2. Cell viability was determined by CellTiter-Glo as described by the manufacturer's instructions (Promega Corporation, Madison, WI, USA).

RS4;11 cells = experiment: Cell Viability Assay (CellTiter-Glo) in RS4;11 cell line; format: cell-based; conditions: 24 hours, 10% Human Serum
Procedure: as §1, §2

[1] = Bioavailability study: pharmacokinetics after single intravenous or oral dose in mouse; format: in vivo, CD-1 mice (male)
Procedure: Studies were conducted to evaluate the pharmacokinetic profiles of Example 25 herein and Example 2 in WO 2019/040550 after single intravenous or oral dose in mouse. CD-1 mice (male) were obtained from Charles River Laboratories (Wilmington, MA).
The pharmacokinetics of Example 25 herein and Example 2 in WO 2019/040550 were evaluated following single 1 mg/kg intravenous or oral doses in mouse. Example 25 herein and Example 2 in WO 2019/040550 were prepared as a solution in DMSO:Tween 80:PEG-400:Dextrose 5% in Water (5:5:20:70, v/v) for the IV and oral dose mouse studies. The intravenous dose was administered as a slow bolus to the penile vein under isoflurane anesthesia. The oral doses were administrated by gavage. Serial blood samples were obtained […], 0.25, 0.5, 1.0, 4, 6, 9, 12, 24, 32 and 48 hours post dosing and […]. Plasma was separated by centrifugation and stored frozen (<−15° C.) until analysis.
HPLC-MS/MS bioanalytical methods were utilized for the quantitation of Example 25 herein and Example 2 in WO 2019/040550 concentration in plasma. The analytical methods used protein precipitation to extract compound from plasma. All samples were combined with a minimum two volume equivalents of organic solvent containing internal standard, vortexed and then centrifuged to pellet the proteins. Supernatants were used for subsequent analysis by liquid chromatography-tandem mass spectrometry (LC-MS/MS). Studies involving quantitative analysis employed spiked standards in plasma that were processed simultaneously with the samples.
Analytes were separated using reverse phase chromatography on a C8 or C18 column prior to analysis on an API5500m (or higher) mass spectrometer with a Turbo-Ion Spray source. Peak areas were determined using Sciex Analyst™ 1.6 (or higher) software or Sound Analytics DiscoveryQuant™ 2.0 (or higher) software. Actual concentrations (when required) were calculated by regression analysis of the peak area ratio (parent/internal standard) of the spiked standards versus concentrations.
Peak plasma concentrations (Cmax) and the time to peak plasma concentration (Tmax) were determined directly from the plasma concentration data for each animal. The compound plasma concentration data were submitted to multi-exponential curve fitting using WinNonlin software. The area under the plasma concentration-time curve from 0 to t hours after dosing (AUC0-t, t=time of the last measurable plasma concentration) was calculated using the linear trapezoidal rule. The residual area extrapolated to infinity, determined as the final measured plasma concentration (Ct) divided by the terminal plasma elimination rate constant (β), was added to the AUC0-t to produce the total area under the curve (AUC0-∞). The apparent total plasma clearance (CLp) was calculated by dividing the administered dose by the AUC0-∞. Half-life (t1/2) was determined with the following calculation: t1/2=ln (2)/elimination rate constant. The initial volume of distribution (Vc) was calculated as the dose divided by the extrapolated concentration at time=0 (C0). The volume of distribution at steady state, Vss, was estimated as a product of the total plasma clearance (CLp) and the mean residence time (MRT); the terminal-phase volume of distribution, Vβ, was derived from the total plasma clearance value (CLp) divided by the terminal plasma elimination rate constant ((3). Oral bioavailability (F) was calculated as the dose-normalized AUC0-∞ (AUC0-∞/D) from the oral dose divided by the corresponding dose normalized AUC0-∞ from intravenous dosing.

COC1(CNc2ccc(S(=O)(=O)NC(=O)c3ccc(N4CCN5CC6=C(c7ccc(Cl)cc7)CC(C)(C)C[C@H]6OCCCOC[C@@H]5C4)cc3N3CCCOc4nc5[nH]ccc5cc43)cc2[N+](=O)[O-])CCOCC1 [Example 26, 4-((4aS,10aR)-14-(4-chlorophenyl)-12,12-dimethyl-1,2,4a,5,8,9,10a,11,13,15-decahydro-7H,12H-benzo[f]pyrazino[2,1-c][1,8]dioxa[4]azacycloundecin-3(4H)-yl)-2-(3,4-dihydro-2H-pyrrolo[3′,2′:5,6]pyrido[2,3-b][1,4]oxazepin-1(7H)-yl)-N-((4-(((4-methoxytetrahydro-2H-pyran-4-yl)methyl)amino)-3-nitrophenyl)sulfonyl)benzamide]
EC50 (Molt-4 cells): > 10000 nM

CC1(C)CC(c2ccc(Cl)cc2)=C2CN3CCN(c4ccc(C(=O)NS(=O)(=O)c5ccc(NC[C@@H]6CC[C@@H](O)CO6)c([N+](=O)[O-])c5)c(N5CCCOc6nc7[nH]ccc7cc65)c4)C[C@H]3COCCCO[C@@H]2C1 [Example 27, 4-((4aS,10aR)-14-(4-chlorophenyl)-12,12-dimethyl-1,2,4a,5,8,9,10a,11,13,15-decahydro-7H,12H-benzo[f]pyrazino[2,1-c][1,8]dioxa[4]azacycloundecin-3(4H)-yl)-2-(3,4-dihydro-2H-pyrrolo[3′,2′:5,6]pyrido[2,3-b][1,4]oxazepin-1(7H)-yl)-N-((4-((((2S,5R)-5-hydroxytetrahydro-2H-pyran-2-yl)methyl)amino)-3-nitrophenyl)sulfonyl)benzamide]
EC50 (RS4;11 cells): 0.329 nM
EC50 (Molt-4 cells): 535 nM

CO[C@@H]1CC[C@@H](CNc2ccc(S(=O)(=O)NC(=O)c3ccc(N4CCN5CC6=C(c7ccc(Cl)cc7)CC(C)(C)C[C@H]6OCCCOC[C@@H]5C4)cc3N3CCCOc4nc5[nH]ccc5cc43)cc2[N+](=O)[O-])OC1 [Example 25, 4-((4aS,10aR)-14-(4-chlorophenyl)-12,12-dimethyl-1,2,4a,5,8,9,10a,11,13,15-decahydro-7H,12H-benzo[f]pyrazino[2,1-c][1,8]dioxa[4]azacycloundecin-3(4H)-yl)-2-(3,4-dihydro-2H-pyrrolo[3′,2′:5,6]pyrido[2,3-b][1,4]oxazepin-1(7H)-yl)-N-((4-((((2S,5R)-5-methoxytetrahydro-2H-pyran-2-yl)methyl)amino)-3-nitrophenyl)sulfonyl)benzamide]
AUC ([1]; IV 1 mg/kg, individual mouse): 11200 ng·h/mL and 12900 ng·h/mL
CLp ([1]; IV 1 mg/kg, individual mouse): 1.28 mL/min/kg
MRT ([1]; IV 1 mg/kg, individual mouse): 10 h
Vβ ([1]; IV 1 mg/kg, individual mouse): 1.0 L/kg and 0.90 L/kg
AUC ([1]; PO 1 mg/kg, individual mouse): 4330 ng·h/mL and 4490 ng·h/mL
Tmax ([1]; PO 1 mg/kg, individual mouse): 4.0 h
t1/2 ([1]; PO 1 mg/kg, individual mouse): 8.7 h and 10 h
Tmax ([1]; PO 1 mg/kg, mean): 4.0 h

C[C@H]1CCC(CNc2ccc(S(=O)(=O)NC(=O)c3ccc(N4CCN5CC6=C(c7ccc(Cl)cc7)CC(C)(C)C[C@H]6OCCCOC[C@@H]5C4)cc3N3CCCOc4nc5[nH]ccc5cc43)cc2[N+](=O)[O-])OC1 (stereo partly drawn) [Example 23, 4-((4aS,10aR)-14-(4-chlorophenyl)-12,12-dimethyl-1,2,4a,5,8,9,10a,11,13,15-decahydro-7H,12H-benzo[f]pyrazino[2,1-c][1,8]dioxa[4]azacycloundecin-3(4H)-yl)-2-(3,4-dihydro-2H-pyrrolo[3′,2′:5,6]pyrido[2,3-b][1,4]oxazepin-1(7H)-yl)-N-((4-((((2R,5S)-5-methyltetrahydro-2H-pyran-2-yl)methyl)amino)-3-nitrophenyl)sulfonyl)benzamide]
EC50 (Molt-4 cells): > 10000 nM
